Assay results published in patent publication US11339157B1, “4H-pyrrolo[3,2-c]pyridin-4-one derivatives” (Bayer Aktiengesellschaft, priority 2017, dated 2022).
Several values for one entry are separate records, joined by “and”; a condition that tells them apart may be missing. Equal entries are not always repeated. Where two headings read alike, the source gives them in different places.

Key:
[1] = molecular target: EGFR ins SVD (insertion of SVD between D770 and N771) (Homo sapiens, UniProt P00533, INS767SVD); experiment: Exon 20-Mutant-EGFR(D770_N771insSVD) kinase assay (TR-FRET); format: biochemical
Experimental: Exon 20-Mutant-EGFR(D770_N771insSVD) Kinase Assay
Inhibitory activity of compounds of the present invention against an Epidermal Growth Factor Receptor (EGFR) with an insertion of the amino acids sequence SVD between D770 and N771 was quantified employing the TR-FRET based kinase activity assay as described in the following paragraphs.
For the assay 50 nl of a 100-fold concentrated solution of the test compound in DMSO was pipetted into either a black low volume 384 well microtiter plate or a black 1536 well microtiter plate (both Greiner Bio-One, Frickenhausen, Germany), 2 μl of a solution of EGFR in aqueous assay buffer [50 mM Hepes pH 7.0, 10 mM MgCl2, 1 mM dithiothreitol, 0.5 mM EGTA, 0.3 mM activated sodium ortho-vanadate, 0.005% (w/v) bovine serum albumin, 0.005% (v/v) Tween-20] were added and the mixture was incubated for 15 min at 22° C. to allow pre binding of the test compounds to the enzyme before the start of the kinase reaction. […] The concentration of EGFR was adjusted depending of the activity of the enzyme lot and was chosen appropriate to have the assay in the linear range, typical concentration was 15 pg/μl. The reaction was stopped by the addition of 3 μl of a solution of HTRF detection reagents (83.3 nM streptavidine-XL665 [Cisbio Bioassays, Codolet, France] and 1.67 nM PT66-Tb-Cryptate, a terbium-cryptate labelled anti-phospho-tyrosine antibody from Cisbio Bioassays [instead of the PT66 Tb cryptate PT66 Eu Chelate from Perkin Elmer can also be used]) in an aqueous EDTA-solution (133.3 mM EDTA, 0.2% (w/v) bovine serum albumin in 50 mM HEPES pH 7.5).
(§2) The resulting mixture was incubated 1 h at 22° C. to allow the binding of the biotinylated phosphorylated peptide to the streptavidine-XL665 and the PT66-Tb-Cryptate. Subsequently the amount of phosphorylated substrate was evaluated by measurement of the resonance energy transfer from the PT66-Tb-Cryptate to the streptavidine-XL665.

[2] = molecular target: EGFR ins ASV (insertion of ASV between V769 and D770); experiment: Exon 20-Mutant-EGFR(V769_D770insASV) kinase assay (TR-FRET); format: biochemical, human; conditions: 2 mM ATP
Experimental: Exon 20-Mutant-EGFR(V769_D770insASV) Kinase Assay
Inhibitory activity of compounds of the present invention against an Epidermal Growth Factor Receptor (EGFR) with an insertion of the amino acids sequence ASV between V769 and D770 was quantified employing the TR-FRET based kinase activity assay as described in the following paragraphs.
For the assay 50 nl of a 100-fold concentrated solution of the test compound in DMSO was pipetted into either a black low volume 384well microtiter plate or a black 1536 well microtiter plate (both Greiner Bio-One, Frickenhausen, Germany), 2 μl of a solution of EGFR in aqueous assay buffer [50 mM Hepes pH 7.0, 10 mM MgCl2, 1 mM dithiothreitol, 0.5 mM EGTA, 0.3 mM activated sodium ortho-vanadate, 0.005% (w/v) bovine serum albumin, 0.005% (v/v) Tween-20] were added and the mixture was incubated for 15 min at 22° C. to allow pre binding of the test compounds to the enzyme before the start of the kinase reaction. […] The concentration of EGFR was adjusted depending of the activity of the enzyme lot and was chosen appropriate to have the assay in the linear range, typical concentration was 2.5 pg/μl. The reaction was stopped by the addition of 3 μl of a solution of HTRF detection reagents (83.3 nM streptavidine-XL665 [Cisbio Bioassays, Codolet, France] and 1.67 nM PT66-Tb-Cryptate, an terbium-cryptate labelled anti-phospho-tyrosine antibody from Cisbio Bioassays [instead of the PT66 Tb cryptate PT66 Eu Chelate from Perkin Elmer can also be used]) in an aqueous EDTA-solution (133.3 mM EDTA, 0.2% (w/v) bovine serum albumin in 50 mM HEPES pH 7.5).
as §2

[3] = molecular target: Bub1 (Homo sapiens (Human), UniProt O43683); experiment: Bub1 kinase assay (TR-FRET, 10 μM ATP); format: biochemical; conditions: mean, read-out: Bub1 kinase assay IC50 [mol/l] (mean)
Source text: Bub1-inhibitory activities of compounds described in the present invention were quantified using a time-resolved fluorescence energy transfer (TR-FRET) kinase assay which measures phosphorylation of the synthetic peptide Biotin-Ahx-[…]—SEQ ID NO: 5 (C-terminus in amide form), purchased from e.g. Biosyntan (Berlin, Germany) by the (recombinant) catalytic domain of human Bub1 (amino acids 704-1085), expressed in Hi5 insect cells with an N-terminal His6-tag (SEQ ID NO: 9) and purified by affinity-(Ni-NTA) and size exclusion chromatography.
In a typical assay 11 different concentrations of each compound (0.1 nM, 0.33 nM, 1.1 nM, 3.8 nM, 13 nM, 44 nM, 0.15 μM, 0.51 μM, 1.7 μM, 5.9 μM and 20 μM) were tested in duplicate within the same microtiter plate. To this end, 100-fold concentrated compound solutions (in DMSO) were previously prepared by serial dilution (1:3.4) of 2 mM stocks in a clear low volume 384-well source microtiter plate (Greiner Bio-One, Frickenhausen, Germany), from which 50 nl of compounds were transferred into a black low volume test microtiter plate from the same supplier. […] The resulting mixture (5 μl final volume) was incubated at 22° C. during 60 min., and the reaction was stopped by the addition of 5 μl of an aqueous EDTA-solution (50 mM EDTA, in 100 mM HEPES pH 7.5 and 0.2% (w/v) bovine serum albumin) which also contained the TR-FRET detection reagents (0.2 μM streptavidin-XL665 [Cisbio Bioassays, Codolet, France] and 1 nM anti-phosho-Serine antibody [Merck Millipore, cat. #35-002] and 0.4 nM LANCE EU-W1024 labeled anti-mouse IgG antibody [Perkin-Elmer, product no. AD0077, alternatively a Terbium-cryptate-labeled anti-mouse IgG antibody from Cisbio Bioassays can be used]). The stopped reaction mixture was further incubated 1 h at 22° C. in order to allow the formation of complexes between peptides and detection reagents. Subsequently, the amount of product was evaluated by measurement of the resonance energy transfer from the Eu-chelate-antibody complex recognizing the Phosphoserine residue to the streptavidin-XL665 bound to the biotin moiety of the peptide. To this end, the fluorescence emissions at 620 nm and 665 nm after excitation at 330-350 nm were measured in a TR-FRET plate reader, e.g. a Rubystar or Pherastar (both from BMG Labtechnologies, Offenburg, Germany) or a Viewlux (Perkin-Elmer) and the ratio of the emissions (665 nm/[…]) was taken as indicator for the amount of phosphorylated substrate. The data were normalised using two sets of control wells for high-(=enzyme reaction without inhibitor=0%=Minimum inhibition) and low-(=all assay components without enzyme=100%=Maximum inhibition) Bub1 activity. IC50 values were calculated by fitting the normalized inhibition data to a 4-parameter logistic equation (Minimum, Maximum, IC50, Hill; Y=Max+(Min−Max)/(1+(X/IC50)Hill)).

[4] = system: Ba/F3-EGFR-insSVD cells; experiment: Proliferation assay in BA/F3 (ins SVD) cells (Cell Titer-Glo); format: cell-based
How it was run: (§1)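 Ba/F3 cells stably expressing retrovirally transduced EGFR-WT or EGFR-insSVD; WT cells plated with 10 ng/mL EGF, insSVD cells without EGF. Compound exposure 48 h at 37° C; viability read by CellTiter-Glo luminescence.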

[5] = system: Ba/F3-EGFR-WT cells; experiment: Proliferation assay in BA/F3 (wild type) cells (Cell Titer-Glo); format: cell-based
How it was run: as §1

[6] = 2 mM ATP, mean, read-out: EGFR ins SVD IC50 [mol/l] (mean)
[7] = Table 9, read-out: mutEGFR (D770_N771insSVD) kinase assay IC50
[8] = Mus musculus, BaF3, 48 h, Table 10, plated without EGF
[9] = Mus musculus, BaF3, 48 h, Table 10, plated with 10 ng/mL EGF

Sequence of EGFR ins SVD (insertion of SVD between D770 and N771) (P00533 with tags, fused parts or gaps INS767SVD limits assumed): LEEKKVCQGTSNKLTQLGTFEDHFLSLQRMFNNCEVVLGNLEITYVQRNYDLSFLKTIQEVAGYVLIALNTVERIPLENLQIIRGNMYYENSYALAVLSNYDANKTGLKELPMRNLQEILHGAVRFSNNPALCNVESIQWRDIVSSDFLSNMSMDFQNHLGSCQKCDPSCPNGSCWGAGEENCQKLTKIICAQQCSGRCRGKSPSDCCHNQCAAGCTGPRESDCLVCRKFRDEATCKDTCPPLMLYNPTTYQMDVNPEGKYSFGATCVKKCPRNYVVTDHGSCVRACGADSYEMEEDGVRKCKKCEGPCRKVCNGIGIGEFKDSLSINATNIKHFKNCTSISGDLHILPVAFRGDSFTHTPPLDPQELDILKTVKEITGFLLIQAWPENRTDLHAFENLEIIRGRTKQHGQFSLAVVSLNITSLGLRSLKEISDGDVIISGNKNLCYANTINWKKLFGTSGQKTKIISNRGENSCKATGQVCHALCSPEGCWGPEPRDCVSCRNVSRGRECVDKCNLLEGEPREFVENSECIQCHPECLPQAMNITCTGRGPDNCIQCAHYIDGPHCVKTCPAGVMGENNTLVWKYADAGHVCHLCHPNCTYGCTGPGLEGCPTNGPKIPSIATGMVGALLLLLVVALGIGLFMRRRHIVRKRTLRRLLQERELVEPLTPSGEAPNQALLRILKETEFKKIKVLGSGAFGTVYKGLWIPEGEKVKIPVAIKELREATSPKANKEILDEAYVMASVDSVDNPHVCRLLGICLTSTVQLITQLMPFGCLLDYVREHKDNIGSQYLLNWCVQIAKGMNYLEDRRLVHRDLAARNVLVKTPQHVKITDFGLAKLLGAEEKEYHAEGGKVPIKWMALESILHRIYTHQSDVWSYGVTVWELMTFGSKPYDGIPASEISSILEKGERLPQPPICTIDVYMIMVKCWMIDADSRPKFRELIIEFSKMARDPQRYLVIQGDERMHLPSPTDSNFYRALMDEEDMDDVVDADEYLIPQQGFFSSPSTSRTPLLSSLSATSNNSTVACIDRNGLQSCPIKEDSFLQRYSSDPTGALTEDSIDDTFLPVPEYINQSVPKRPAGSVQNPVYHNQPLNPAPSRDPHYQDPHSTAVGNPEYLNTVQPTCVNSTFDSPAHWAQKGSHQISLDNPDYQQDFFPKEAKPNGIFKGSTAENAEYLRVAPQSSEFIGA
Sequence of Bub1 (O43683 704-1085): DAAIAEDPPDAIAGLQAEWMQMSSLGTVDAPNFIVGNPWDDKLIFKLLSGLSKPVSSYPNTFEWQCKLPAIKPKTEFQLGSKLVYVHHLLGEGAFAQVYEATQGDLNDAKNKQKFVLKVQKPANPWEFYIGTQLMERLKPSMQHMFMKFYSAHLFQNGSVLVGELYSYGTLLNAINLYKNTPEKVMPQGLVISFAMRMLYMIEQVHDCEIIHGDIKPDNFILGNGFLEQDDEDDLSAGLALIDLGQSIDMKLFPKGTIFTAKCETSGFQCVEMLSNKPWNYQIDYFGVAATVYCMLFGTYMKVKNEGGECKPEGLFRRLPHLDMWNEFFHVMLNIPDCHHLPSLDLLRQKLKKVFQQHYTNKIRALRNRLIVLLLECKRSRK

| SMILES | IC50 [1, 6] | IC50 [1, 7] | EGFR ins ASV IC50 [mol] (mean) [2] | IC50 [3] | IC50 [4, 8] | IC50 [5, 9] | IC50 ([4]; Table 10, plated without EGF, 48 h) | IC50 ([5]; Table 10, plated with 10 ng/mL EGF, 48 h) | IC50 ([4]; Mus musculus, BaF3, Table 10, plated without EGF, 48 h) | IC50 ([5]; Mus musculus, BaF3, Table 10, plated with 10 ng/mL EGF, 48 h) |
| --- | --- | --- | --- | --- | --- | --- | --- | --- | --- | --- |
| COCCOc1cnccc1-c1[nH]c2c(c1Nc1cc(F)cc(F)c1OC)C(=O)NCC2 [Example 30, 3-[(3,5-difluoro-2-methoxyphenyl)amino]-2-[3-(2-methoxyethoxy)pyridin-4-yl]-1,5,6,7-tetrahydro-4H-pyrrolo[3,2-c]pyridin-4-one] | 0.0969 nM | 0.109 nM | 2.09e-10 mol | 323 nM | 149 nM | 1860 nM | – | – | – | – |
| COC(C)(C)COc1cnccc1-c1[nH]c2c(c1Nc1cccc(F)c1)C(=O)NCC2 [Example 6, 3-[(3-fluorophenyl)amino]-2-[3-(2-methoxy-2-methylpropoxy)pyridin-4-yl]-1,5,6,7-tetrahydro-4H-pyrrolo[3,2-c]pyridin-4-one] | < 0.072 nM | < 0.0725 nM (2×) and 0.104 nM and 0.0949 nM | 2.12e-10 mol | 26.9 nM | 63.3 nM | 394 nM | – | – | – | – |
| COc1c(F)cc(F)cc1Nc1c(-c2ccncc2OCC(C)(C)OC)[nH]c2c1C(=O)NCC2 [Example 31, 3-[(3,5-difluoro-2-methoxyphenyl)amino]-2-[3-(2-methoxy-2-methylpropoxy)pyridin-4-yl]-1,5,6,7-tetrahydro-4H-pyrrolo[3,2-c]pyridin-4-one] | 0.0988 nM | 0.193 nM | 1.61e-10 mol | 265 nM | 158 nM | 1710 nM | – | – | – | – |
| COCCOc1cnccc1-c1[nH]c2c(c1Nc1ccccc1CC(F)F)C(=O)NCC2 [Example 15, 3-{[2-(2,2-difluoroethyl)phenyl]amino}-2-[3-(2-methoxyethoxy)pyridin-4-yl]-1,5,6,7-tetrahydro-4H-pyrrolo[3,2-c]pyridin-4-one] | 0.489 nM | 0.489 nM | 1.34e-09 mol | 187 nM | 409 nM | 2870 nM | – | – | – | – |
| COC(C)(C)COc1cnccc1-c1[nH]c2c(c1Nc1cccc(F)c1OC(F)F)C(=O)NCC2 [Example 19, 3-{[2-(difluoromethoxy)-3-fluorophenyl]amino}-2-[3-(2-methoxy-2-methylpropoxy)pyridin-4-yl]-1,5,6,7-tetrahydro-4H-pyrrolo[3,2-c]pyridin-4-one] | 0.155 nM | 0.148 nM | 2.39e-10 mol | 149 nM | – | – | 40.1 nM | 870 nM | – | – |
| COC(C)(C)COc1cnccc1-c1[nH]c2c(c1Nc1cccc(F)c1OCC(F)F)C(=O)NCC2 [Example 27, 3-{[2-(2,2-difluoroethoxy)-3-fluorophenyl]amino}-2-[3-(2-methoxy-2-methylpropoxy)pyridin-4-yl]-1,5,6,7-tetrahydro-4H-pyrrolo[3,2-c]pyridin-4-one] | 2.14 nM | 2.14 nM | 7.09e-09 mol | 70.1 nM | 498 nM | 2500 nM | – | – | – | – |
| O=C1NCCc2[nH]c(-c3ccncc3OCc3ccccc3)c(Nc3cccc(F)c3)c21 [Example 3, 2-[3-(benzyloxy)pyridin-4-yl]-3-[(3-fluorophenyl)amino]-1,5,6,7-tetrahydro-4H-pyrrolo[3,2-c]pyridin-4-one] | 0.28 nM | 0.28 nM | 6.85e-09 mol | 47.6 nM | – | – | – | – | 587 nM | 2160 nM |
| COCCOc1cnccc1-c1[nH]c2c(c1Nc1cccc(F)c1C)C(=O)NCC2 [Example 20, 3-[(3-fluoro-2-methylphenyl)amino]-2-[3-(2-methoxyethoxy)pyridin-4-yl]-1,5,6,7-tetrahydro-4H-pyrrolo[3,2-c]pyridin-4-one] | 0.149 nM | 0.149 nM | 3.22e-10 mol | 67.4 nM | 48.3 nM | 625 nM | – | – | – | – |
| CC(C)(O)COc1cnccc1-c1[nH]c2c(c1Nc1cccc(F)c1)C(=O)NCC2 [Example 4, 3-[(3-fluorophenyl)amino]-2-[3-(2-hydroxy-2-methylpropoxy)pyridin-4-yl]-1,5,6,7-tetrahydro-4H-pyrrolo[3,2-c]pyridin-4-one] | < 0.072 nM | < 0.0725 nM | 1.31e-10 mol | 12.5 nM | 329 nM | 1610 nM | – | – | – | – |
| COCCOc1cnccc1-c1[nH]c2c(c1Nc1ccc(F)c(F)c1OC)C(=O)NCC2 [Example 28, 3-[(3,4-difluoro-2-methoxyphenyl)amino]-2-[3-(2-methoxyethoxy)pyridin-4-yl]-1,5,6,7-tetrahydro-4H-pyrrolo[3,2-c]pyridin-4-one] | 0.738 nM | 0.54 nM | 2.69e-08 mol | 565 nM | 644 nM | 3670 nM | – | – | – | – |
| COCCOc1cnccc1-c1[nH]c2c(c1Nc1ccccc1OC(F)F)C(=O)NCC2 [Example 11, 3-{[2-(difluoromethoxy)phenyl]amino}-2-[3-(2-methoxyethoxy)pyridin-4-yl]-1,5,6,7-tetrahydro-4H-pyrrolo[3,2-c]pyridin-4-one] | 0.22 nM | 0.292 nM | 4.25e-09 mol | 192 nM | 357 nM | 1780 nM | – | – | – | – |
| COC(C)(C)COc1cnccc1-c1[nH]c2c(c1Nc1cccc(F)c1CC(F)F)C(=O)NCC2 [Example 23, 3-{[2-(2,2-difluoroethyl)-3-fluorophenyl]amino}-2-[3-(2-methoxy-2-methylpropoxy)pyridin-4-yl]-1,5,6,7-tetrahydro-4H-pyrrolo[3,2-c]pyridin-4-one] | 0.259 nM | 0.191 nM | 3.42e-10 mol | 67.3 nM | 33 nM | 388 nM | – | – | – | – |
| CCOc1c(F)cccc1Nc1c(-c2ccncc2OCC(C)(C)OC)[nH]c2c1C(=O)NCC2 [Example 26, 3-[(2-ethoxy-3-fluorophenyl)amino]-2-[3-(2-methoxy-2-methylpropoxy)pyridin-4-yl]-1,5,6,7-tetrahydro-4H-pyrrolo[3,2-c]pyridin-4-one] | 0.268 nM | 0.415 nM | 9.43e-10 mol | 85.8 nM | 618 nM | 2000 nM | – | – | – | – |
| COc1c(F)cccc1Nc1c(-c2ccncc2OCC(C)(C)OC)[nH]c2c1C(=O)NCC2 [Example 17, 3-[(3-fluoro-2-methoxyphenyl)amino]-2-[3-(2-methoxy-2-methylpropoxy)pyridin-4-yl]-1,5,6,7-tetrahydro-4H-pyrrolo[3,2-c]pyridin-4-one] | 0.113 nM | 0.113 nM | 1.77e-10 mol | 55.1 nM | 11.9 nM | 397 nM | – | – | – | – |
